Reference: the NIST ThermoML archive (doi:10.1016/j.fluid.2017.06.022)
Numbers after ± are expanded uncertainties.

Assay: xn = mol fraction of the nth substance listed
Conditions: Liquid, Bellows volumetry

C=C [ethene] + Cc1ccccc1
Conditions	mass density [kg/m3]
421 K, 37600 kPa, x1 = 0.3067	688.2 ± 16
421 K, 44700 kPa, x1 = 0.3067	698 ± 17
421 K, 51000 kPa, x1 = 0.3067	705.4 ± 17
421 K, 58300 kPa, x1 = 0.3067	714.6 ± 17
421 K, 63100 kPa, x1 = 0.3067	720.1 ± 17
421 K, 66800 kPa, x1 = 0.3067	724 ± 17
422.2 K, 2530 kPa, x1 = 0.1194	681.2 ± 16
422.2 K, 2830 kPa, x1 = 0.1194	682.2 ± 16
422.2 K, 3620 kPa, x1 = 0.1194	684.1 ± 16
422.2 K, 5330 kPa, x1 = 0.1194	688.4 ± 16
422.2 K, 7040 kPa, x1 = 0.1194	692.2 ± 17
422.2 K, 7110 kPa, x1 = 0.1194	692.2 ± 17
422.2 K, 10420 kPa, x1 = 0.1194	699.6 ± 17
422.2 K, 13400 kPa, x1 = 0.1194	705.1 ± 17
422.2 K, 17400 kPa, x1 = 0.1194	712.2 ± 17
422.2 K, 20480 kPa, x1 = 0.1194	716.9 ± 17
422.2 K, 22980 kPa, x1 = 0.1194	720.6 ± 17
422.2 K, 24010 kPa, x1 = 0.1194	722.1 ± 17
422.2 K, 30990 kPa, x1 = 0.1194	731.2 ± 18
422.2 K, 37420 kPa, x1 = 0.1194	739.4 ± 18
422.2 K, 44550 kPa, x1 = 0.1194	747.3 ± 18
422.2 K, 51320 kPa, x1 = 0.1194	755.3 ± 18
422.2 K, 58240 kPa, x1 = 0.1194	762.3 ± 18
422.2 K, 63240 kPa, x1 = 0.1194	767.6 ± 18
422.2 K, 67210 kPa, x1 = 0.1194	771.2 ± 18
470.9 K, 3430 kPa, x1 = 0.1194	616.2 ± 15
470.9 K, 3560 kPa, x1 = 0.1194	617.7 ± 15
470.9 K, 4240 kPa, x1 = 0.1194	620.4 ± 15
470.9 K, 4990 kPa, x1 = 0.1194	623.6 ± 15
470.9 K, 5950 kPa, x1 = 0.1194	627.5 ± 15
470.9 K, 7310 kPa, x1 = 0.1194	631.9 ± 15
470.9 K, 10590 kPa, x1 = 0.1194	642.6 ± 15
470.9 K, 14000 kPa, x1 = 0.1194	652.4 ± 16
470.9 K, 16940 kPa, x1 = 0.1194	659.8 ± 16
470.9 K, 24260 kPa, x1 = 0.1194	676.6 ± 16
470.9 K, 31240 kPa, x1 = 0.1194	690.3 ± 17
470.9 K, 37460 kPa, x1 = 0.1194	701.1 ± 17
470.9 K, 41500 kPa, x1 = 0.1194	707.1 ± 17
470.9 K, 44850 kPa, x1 = 0.1194	712.2 ± 17
470.9 K, 51420 kPa, x1 = 0.1194	720.6 ± 17
470.9 K, 58440 kPa, x1 = 0.1194	729.1 ± 18
470.9 K, 62650 kPa, x1 = 0.1194	733.4 ± 18
470.9 K, 67380 kPa, x1 = 0.1194	738.3 ± 18
475.1 K, 7800 kPa, x1 = 0.3067	540.4 ± 13
475.1 K, 8600 kPa, x1 = 0.3067	545.2 ± 13
475.1 K, 9400 kPa, x1 = 0.3067	551 ± 13
475.1 K, 10600 kPa, x1 = 0.3067	557.2 ± 13
475.1 K, 12100 kPa, x1 = 0.3067	565.4 ± 14
475.1 K, 14000 kPa, x1 = 0.3067	572.7 ± 14
475.1 K, 17400 kPa, x1 = 0.3067	586 ± 14
475.1 K, 20700 kPa, x1 = 0.3067	598.4 ± 14
475.1 K, 24300 kPa, x1 = 0.3067	609 ± 15
475.1 K, 30800 kPa, x1 = 0.3067	625.7 ± 15
475.1 K, 37500 kPa, x1 = 0.3067	640.8 ± 15
475.1 K, 44500 kPa, x1 = 0.3067	654.3 ± 16
475.1 K, 51800 kPa, x1 = 0.3067	666.5 ± 16
475.1 K, 58100 kPa, x1 = 0.3067	676.2 ± 16
475.1 K, 63100 kPa, x1 = 0.3067	682.6 ± 16
475.1 K, 67400 kPa, x1 = 0.3067	687.7 ± 16
519 K, 4500 kPa, x1 = 0.1194	541.1 ± 13
519 K, 5100 kPa, x1 = 0.1194	547.1 ± 13
519 K, 6120 kPa, x1 = 0.1194	555.5 ± 13
519 K, 7100 kPa, x1 = 0.1194	562.7 ± 14
519 K, 8870 kPa, x1 = 0.1194	573.5 ± 14
519 K, 10630 kPa, x1 = 0.1194	583 ± 14
519 K, 13940 kPa, x1 = 0.1194	597.1 ± 14
519 K, 14140 kPa, x1 = 0.1194	598.2 ± 14
519 K, 17480 kPa, x1 = 0.1194	610.1 ± 15
519 K, 24180 kPa, x1 = 0.1194	630.3 ± 15
519 K, 31210 kPa, x1 = 0.1194	647.7 ± 16
519 K, 38050 kPa, x1 = 0.1194	662.1 ± 16
519 K, 44340 kPa, x1 = 0.1194	674.3 ± 16
519 K, 51320 kPa, x1 = 0.1194	686.5 ± 16
519 K, 51390 kPa, x1 = 0.1194	686.5 ± 16
519 K, 58160 kPa, x1 = 0.1194	697.1 ± 17
519 K, 63090 kPa, x1 = 0.1194	704.6 ± 17
519 K, 66990 kPa, x1 = 0.1194	709.7 ± 17
519.3 K, 8400 kPa, x1 = 0.3067	448 ± 11
519.3 K, 8600 kPa, x1 = 0.3067	455.1 ± 11
519.3 K, 9400 kPa, x1 = 0.3067	472 ± 11
519.3 K, 10500 kPa, x1 = 0.3067	482.9 ± 12
519.3 K, 12000 kPa, x1 = 0.3067	499.7 ± 12
519.3 K, 13800 kPa, x1 = 0.3067	513.9 ± 12
519.3 K, 14100 kPa, x1 = 0.3067	515.9 ± 12
519.3 K, 15900 kPa, x1 = 0.3067	525.1 ± 13
519.3 K, 17200 kPa, x1 = 0.3067	535.5 ± 13
519.3 K, 20900 kPa, x1 = 0.3067	553.6 ± 13
519.3 K, 24100 kPa, x1 = 0.3067	565.7 ± 14
519.3 K, 31300 kPa, x1 = 0.3067	589.3 ± 14
519.3 K, 37800 kPa, x1 = 0.3067	605 ± 14
519.3 K, 44900 kPa, x1 = 0.3067	621.2 ± 15
519.3 K, 51600 kPa, x1 = 0.3067	636.4 ± 15
519.3 K, 58300 kPa, x1 = 0.3067	647.5 ± 16
519.3 K, 63100 kPa, x1 = 0.3067	656.6 ± 16
519.3 K, 67100 kPa, x1 = 0.3067	662.7 ± 16
